The results in this text go back to patent US10227281B2, “Preparation of 2,6- and 2,7-disubstituted anthraquinone derivates” (BASF SE, priority 2014, dated 2019).

≈ marks a conversion by molar mass, not a printed value.

Data set [1] can be described thus: Determination of the solubility of anthraquinone derivatives in xylene/diisobutylcarbinol. The conditions noted are these: for Solubility in the solvent system used (in words): xylene/diisobutylcarbinol solvent system, comparison of the derivatives.
Protocol: 0.06 ml of a mixture of xylene (50 volume-%) and diisobutylcarbinol (50 volume-%) were added to 1 g of the respective anthraquinone derivative at 22° C. every 60 seconds until the anthraquinone derivative was dissolved completely.
Data set [2] in a line: Solubility of the anthrahydroquinone from the amount of absorbed hydrogen until precipitation. It counts as physicochemical. As to conditions: hydroquinone form, equivolume mixture of xylene and diisobutylcarbinol, 30° C. How it is done:
5 g of the anthraquinone derivative obtained from Example 4 were dissolved in an equivolume mixture of xylene and diisobutylcarbinol at 30° C. to obtain 100 ml of an anthraquinone solution. 2 g of a palladium catalyst on alumina was added to 50 ml of the anthraquinone solution and then the solution was made to absorb the theoretical amount of hydrogen at 30° C. The obtained solution has been left untouched for 15 h to thoroughly precipitate the excess of anthrahydroquinone. After the catalyst and the precipitate have been separated by filtration under a current of nitrogen, the resulting solution was stirred under air in order to oxidize the anthrahydroquinone back to the corresponding anthraquinone. The produced hydrogen peroxide was extracted with water. After the extraction of the hydrogen peroxide was completed, 25 mL of the working solution were further submitted to subsequent hydrogenation at 30° C. as described above until a state of saturation was reached.

Where [3] appears, read: mixture of xylene (50 volume-%) and diisobutylcarbinol (50 volume-%), 22° C., quinone form.

As usually defined, the Solubility is how much of the substance goes into solution per volume. On to `Cc1cc2c(cc1C)C(=O)c1cc(C)c(C)cc1C2=O` [Comparative Example 3, 2,3,6,7-tetramethylanthracene-9,10-dione], for which, in data set [1] (setting [3]), the Solubility entry is “Insoluble”. In addition, the “Solubility in the solvent system used (in words)” value (“Solubility … (in words)” for short) in data set [1] was “insoluble”. For the compound “2,6-bis(4-methylpent-3-enyl)anthracene-9,10-dione and 2,7-bis(4-methylpent-3-enyl)anthracene-9,10-dione [Example 1]”, the Solubility in data set [1] (setting [3]) amounted to 770 mM. In the case of “2,6-diisohexylanthracene-9,10-dione and 2,7-diisohexylanthracene-9,10-dione [Example 4]”, the “Solubility of the anthrahydroquinone” value in data set [2] stood at 1010 mM. Also, in data set [1] (setting [3]), the Solubility stood at 1610 mM. Also, the “Solubility … (in words)” value in data set [1] is “highest solubility”. With `CCc1ccc2c(c1)C(=O)c1ccccc1C2=O` [2-ethylanthraquinone], in data set [1], the “Solubility … (in words)” value is listed as “only poorly soluble”. Consider `CC(C)=CCc1ccc2c(c1)C(=O)c1ccccc1C2=O` [Comparative Example 1, 2-(3-methylbut-2-en-1-yl)anthracene-9,10-dione], for which, in data set [1] (xylene/diisobutylcarbinol mixture (50:50 by volume)), the Solubility amounted to 770 mM (≈ 213 mg/mL).
